# Assay results as given in patent publication US7375083B2, “Pharmaceutical compositions for prevention of overdose or abuse” (Shire LLC, priority 2003, dated 2008).
# Tested on: Anesthetized Dog
# Test: Cardiovascular effects after intravenous bolus injection in anesthetized dogs
smiles,measurement,setting,value
"CC(Cc1ccccc1)NC(=O)C(N)CCCCN [L-lysine-d-amphetamine, 2,6-diaminohexanoic acid-(1-methyl-2-phenylethyl)-amide]",DAP % Change from respective Time 0,"0.5 mg/kg, TIME 0",0%
same,DAP - diastolic arterial pressure,"0.5 mg/kg, TIME 0",51 mmHg
same,LVP % Change from respective Time 0,"0.5 mg/kg, TIME 0",0%
same,LVP - left ventricular pressure,"0.5 mg/kg, TIME 0",86 mmHg
same,MAP % Change from respective Time 0,"0.5 mg/kg, TIME 0",0%
same,MAP - mean arterial pressure,"0.5 mg/kg, TIME 0",64 mmHg
same,SAP % Change from respective Time 0,"0.5 mg/kg, TIME 0",0%
same,SAP - systolic arterial pressure,"0.5 mg/kg, TIME 0",84 mmHg
same,DAP % Change from respective Time 0,"0.5 mg/kg, TIME 5",3%
same,DAP - diastolic arterial pressure,"0.5 mg/kg, TIME 5",52 mmHg
same,LVP % Change from respective Time 0,"0.5 mg/kg, TIME 5",2%
same,LVP - left ventricular pressure,"0.5 mg/kg, TIME 5",87 mmHg
same,MAP % Change from respective Time 0,"0.5 mg/kg, TIME 5",3%
same,MAP - mean arterial pressure,"0.5 mg/kg, TIME 5",66 mmHg
same,SAP % Change from respective Time 0,"0.5 mg/kg, TIME 5",4%
same,SAP - systolic arterial pressure,"0.5 mg/kg, TIME 5",87 mmHg
same,DAP % Change from respective Time 0,"0.5 mg/kg, TIME 15",1%
same,DAP - diastolic arterial pressure,"0.5 mg/kg, TIME 15",51 mmHg
same,LVP % Change from respective Time 0,"0.5 mg/kg, TIME 15",11%
same,LVP - left ventricular pressure,"0.5 mg/kg, TIME 15",95 mmHg
same,MAP % Change from respective Time 0,"0.5 mg/kg, TIME 15",5%
same,MAP - mean arterial pressure,"0.5 mg/kg, TIME 15",67 mmHg
same,SAP % Change from respective Time 0,"0.5 mg/kg, TIME 15",11%
same,SAP - systolic arterial pressure,"0.5 mg/kg, TIME 15",93 mmHg
same,DAP % Change from respective Time 0,"0.5 mg/kg, TIME 25",8%
same,DAP - diastolic arterial pressure,"0.5 mg/kg, TIME 25",55 mmHg
same,LVP % Change from respective Time 0,"0.5 mg/kg, TIME 25",22%
same,LVP - left ventricular pressure,"0.5 mg/kg, TIME 25",105 mmHg
same,MAP % Change from respective Time 0,"0.5 mg/kg, TIME 25",15%
same,MAP - mean arterial pressure,"0.5 mg/kg, TIME 25",73 mmHg
same,SAP % Change from respective Time 0,"0.5 mg/kg, TIME 25",25%
same,DAP % Change from respective Time 0,"0.5 mg/kg, TIME 30",14%
same,DAP - diastolic arterial pressure,"0.5 mg/kg, TIME 30",58 mmHg
same,LVP % Change from respective Time 0,"0.5 mg/kg, TIME 30",26%
same,MAP % Change from respective Time 0,"0.5 mg/kg, TIME 30",21%
same,MAP - mean arterial pressure,"0.5 mg/kg, TIME 30",77 mmHg
same,SAP % Change from respective Time 0,"0.5 mg/kg, TIME 30",28%
same,DAP % Change from respective Time 0,"1.0 mg/kg, TIME 0",0%
same,DAP - diastolic arterial pressure,"1.0 mg/kg, TIME 0",55 mmHg
same,LVP % Change from respective Time 0,"1.0 mg/kg, TIME 0",0%
same,MAP % Change from respective Time 0,"1.0 mg/kg, TIME 0",0%
same,MAP - mean arterial pressure,"1.0 mg/kg, TIME 0",74 mmHg
same,SAP % Change from respective Time 0,"1.0 mg/kg, TIME 0",0%
same,SAP - systolic arterial pressure,"1.0 mg/kg, TIME 0",105 mmHg
same,DAP % Change from respective Time 0,"1.0 mg/kg, TIME 5",15%
same,DAP - diastolic arterial pressure,"1.0 mg/kg, TIME 5",63 mmHg
same,LVP % Change from respective Time 0,"1.0 mg/kg, TIME 5",11%
same,LVP - left ventricular pressure,"1.0 mg/kg, TIME 5",120 mmHg
same,MAP % Change from respective Time 0,"1.0 mg/kg, TIME 5",15%
same,MAP - mean arterial pressure,"1.0 mg/kg, TIME 5",85 mmHg
same,SAP % Change from respective Time 0,"1.0 mg/kg, TIME 5",15%
same,DAP % Change from respective Time 0,"1.0 mg/kg, TIME 15",33%
same,DAP - diastolic arterial pressure,"1.0 mg/kg, TIME 15",73 mmHg
same,LVP % Change from respective Time 0,"1.0 mg/kg, TIME 15",29%
same,LVP - left ventricular pressure,"1.0 mg/kg, TIME 15",140 mmHg
same,MAP % Change from respective Time 0,"1.0 mg/kg, TIME 15",35%
same,MAP - mean arterial pressure,"1.0 mg/kg, TIME 15",100 mmHg
same,SAP % Change from respective Time 0,"1.0 mg/kg, TIME 15",35%
same,DAP % Change from respective Time 0,"1.0 mg/kg, TIME 25",75%
same,DAP - diastolic arterial pressure,"1.0 mg/kg, TIME 25",97 mmHg
same,LVP % Change from respective Time 0,"1.0 mg/kg, TIME 25",50%
same,MAP % Change from respective Time 0,"1.0 mg/kg, TIME 25",68%
same,SAP % Change from respective Time 0,"1.0 mg/kg, TIME 25",55%
same,DAP % Change from respective Time 0,"1.0 mg/kg, TIME 30",32%
same,DAP - diastolic arterial pressure,"1.0 mg/kg, TIME 30",73 mmHg
same,LVP % Change from respective Time 0,"1.0 mg/kg, TIME 30",33%
same,MAP % Change from respective Time 0,"1.0 mg/kg, TIME 30",32%
same,MAP - mean arterial pressure,"1.0 mg/kg, TIME 30",98 mmHg
same,SAP % Change from respective Time 0,"1.0 mg/kg, TIME 30",28%
same,DAP % Change from respective Time 0,"5.0 mg/kg, TIME 0",0%
same,DAP - diastolic arterial pressure,"5.0 mg/kg, TIME 0",71 mmHg
same,LVP % Change from respective Time 0,"5.0 mg/kg, TIME 0",0%
same,MAP % Change from respective Time 0,"5.0 mg/kg, TIME 0",0%
same,MAP - mean arterial pressure,"5.0 mg/kg, TIME 0",95 mmHg
same,SAP % Change from respective Time 0,"5.0 mg/kg, TIME 0",0%
same,SAP - systolic arterial pressure,"5.0 mg/kg, TIME 0",132 mmHg
same,DAP % Change from respective Time 0,"5.0 mg/kg, TIME 5",0%
same,DAP - diastolic arterial pressure,"5.0 mg/kg, TIME 5",71 mmHg
same,LVP % Change from respective Time 0,"5.0 mg/kg, TIME 5",5%
same,MAP % Change from respective Time 0,"5.0 mg/kg, TIME 5",4%
same,MAP - mean arterial pressure,"5.0 mg/kg, TIME 5",99 mmHg
same,SAP % Change from respective Time 0,"5.0 mg/kg, TIME 5",7%
same,DAP % Change from respective Time 0,"5.0 mg/kg, TIME 15",39%
same,DAP - diastolic arterial pressure,"5.0 mg/kg, TIME 15",98 mmHg
same,LVP % Change from respective Time 0,"5.0 mg/kg, TIME 15",28%
same,MAP % Change from respective Time 0,"5.0 mg/kg, TIME 15",37%
same,MAP - mean arterial pressure,"5.0 mg/kg, TIME 15",130 mmHg
same,SAP % Change from respective Time 0,"5.0 mg/kg, TIME 15",33%
same,DAP % Change from respective Time 0,"5.0 mg/kg, TIME 25",−3%
same,DAP - diastolic arterial pressure,"5.0 mg/kg, TIME 25",69 mmHg
same,LVP % Change from respective Time 0,"5.0 mg/kg, TIME 25",11%
same,LVP - left ventricular pressure,"5.0 mg/kg, TIME 25",160 mmHg
same,MAP % Change from respective Time 0,"5.0 mg/kg, TIME 25",1%
same,MAP - mean arterial pressure,"5.0 mg/kg, TIME 25",96 mmHg
same,SAP % Change from respective Time 0,"5.0 mg/kg, TIME 25",−5%
same,DAP % Change from respective Time 0,"5.0 mg/kg, TIME 30",−1%
same,DAP - diastolic arterial pressure,"5.0 mg/kg, TIME 30",70 mmHg
same,LVP % Change from respective Time 0,"5.0 mg/kg, TIME 30",13%
same,MAP % Change from respective Time 0,"5.0 mg/kg, TIME 30",4%
same,MAP - mean arterial pressure,"5.0 mg/kg, TIME 30",99 mmHg
same,SAP % Change from respective Time 0,"5.0 mg/kg, TIME 30",0%
same,SAP - systolic arterial pressure,"5.0 mg/kg, TIME 30",132 mmHg
same,Effect on mean blood pressure after the first (lowest) dose,"dog, IV bolus, 0.202 mg/kg d-amphetamine, equimolar to 0.5 mg/kg L-lysine-d-amphetamine",very little change in mean BP
same,Increase of mean blood pressure,"dog, IV bolus, approximately 30 minutes after injection",20-50%
